Measurements taken from ChEMBL document CHEMBL4229543, “Squaramides as novel class I and IIB histone deacetylase inhibitors for topical treatment of cutaneous t-cell lymphoma” (Bioorg Med Chem Lett, 2018).
Values after ≈ are worked out from the molar mass of the structure shown.

Biological target: T1, NAD-dependent protein deacetylase sirtuin-3, mitochondrial (Homo sapiens, UniProt Q9NTG7)
T1 sequence (Q9NTG7 whole entry): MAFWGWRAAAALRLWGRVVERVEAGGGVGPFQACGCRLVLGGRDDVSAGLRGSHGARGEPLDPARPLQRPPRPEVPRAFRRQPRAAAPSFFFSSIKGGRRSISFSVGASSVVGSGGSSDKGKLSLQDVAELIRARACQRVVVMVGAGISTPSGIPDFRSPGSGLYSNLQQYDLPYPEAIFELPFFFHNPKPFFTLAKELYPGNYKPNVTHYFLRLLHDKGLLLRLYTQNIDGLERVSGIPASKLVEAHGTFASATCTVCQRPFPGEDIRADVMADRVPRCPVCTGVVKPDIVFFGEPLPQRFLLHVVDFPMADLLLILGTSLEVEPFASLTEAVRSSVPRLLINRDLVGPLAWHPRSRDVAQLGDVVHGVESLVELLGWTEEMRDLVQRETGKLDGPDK
Assay: Inhibition of human recombinant SIRT3 using fluoro-lysine sirtuin 2 deacetylase substrate after 45 mins by fluorimetrc method
Conditions: not given

| SMILES | Ki [nM] |
| --- | --- |
| Cc1[nH]c2ccccc2c1CCNCc1ccc(/C=C/C(=O)NO)cc1 [PANOBINOSTAT] | > 10000 |

System: not listed separately
Assay: Solubility in PG/EtOH (96%) at 30 mg/mL after 24 hrs by UV-spectrometric method
Format: physicochemical
Conditions: PG/EtOH (96%)

| SMILES | solubility at 24 h [µM] |
| --- | --- |
| Cc1[nH]c2ccccc2c1CCNCc1ccc(/C=C/C(=O)NO)cc1 [PANOBINOSTAT] | 20000 (≈ 6990 µg/mL) |
| COc1ccc(Nc2c(NC(C)CCCCC(=O)NO)c(=O)c2=O)cc1 (racemic) | 11000 (≈ 3980 µg/mL) |
| CN(C)c1ccc(Nc2c(NCCCCCC(=O)NO)c(=O)c2=O)cc1 | 1400 (≈ 505 µg/mL) |
| O=C(CCCCNc1c(Nc2ccccc2)c(=O)c1=O)NO | 32000 (≈ 9710 µg/mL) |
| C[C@H](CCCCC(=O)NO)Nc1c(Nc2ccc(OC(F)(F)F)cc2)c(=O)c1=O | 70000 (≈ 29100 µg/mL) |
| Cc1cc2ccc(Nc3c(NCCCCCC(=O)NO)c(=O)c3=O)cc2[nH]1 | 9100 (≈ 3370 µg/mL) |
| C[C@@H](CCCCC(=O)NO)Nc1c(Nc2ccc(N(C)C)cc2)c(=O)c1=O | 28000 (≈ 10500 µg/mL) |
| C[C@H](Nc1c(NCCCCCC(=O)NO)c(=O)c1=O)c1ccccc1 | 28000 (≈ 9670 µg/mL) |
| O=C(CCCCCNc1c(Nc2ccccc2)c(=O)c1=O)NO | 2200 (≈ 698 µg/mL) |

System: not listed separately
Assay: Clearance in human hepatocytes assessed per million cells at 1 uM after 5 to 90 mins by LC-MS/MS analysis
Format: ADME, cell-based, Hepatocyte
Conditions: read-out: CLH

| SMILES | hepatocyte CLint at 1 µM [µL/min/1e6 cells] |
| --- | --- |
| Cc1[nH]c2ccccc2c1CCNCc1ccc(/C=C/C(=O)NO)cc1 [PANOBINOSTAT] | 8.5 |
| COc1ccc(Nc2c(NC(C)CCCCC(=O)NO)c(=O)c2=O)cc1 (racemic) | 7.1 |
| CN(C)c1ccc(Nc2c(NCCCCCC(=O)NO)c(=O)c2=O)cc1 | < 5 |
| O=C(CCCCNc1c(Nc2ccccc2)c(=O)c1=O)NO | < 5 |
| C[C@H](CCCCC(=O)NO)Nc1c(Nc2ccc(OC(F)(F)F)cc2)c(=O)c1=O | 31 |
| Cc1cc2ccc(Nc3c(NCCCCCC(=O)NO)c(=O)c3=O)cc2[nH]1 | < 5 |
| C[C@@H](CCCCC(=O)NO)Nc1c(Nc2ccc(N(C)C)cc2)c(=O)c1=O | 3.6 |
| C[C@H](Nc1c(NCCCCCC(=O)NO)c(=O)c1=O)c1ccccc1 | < 5 |
| O=C(CCCCCNc1c(Nc2ccccc2)c(=O)c1=O)NO | < 4.8 |

Biological target: T2, NAD-dependent protein deacetylase sirtuin-7 (Homo sapiens, UniProt Q9NRC8)
T2 sequence (Q9NRC8 whole entry): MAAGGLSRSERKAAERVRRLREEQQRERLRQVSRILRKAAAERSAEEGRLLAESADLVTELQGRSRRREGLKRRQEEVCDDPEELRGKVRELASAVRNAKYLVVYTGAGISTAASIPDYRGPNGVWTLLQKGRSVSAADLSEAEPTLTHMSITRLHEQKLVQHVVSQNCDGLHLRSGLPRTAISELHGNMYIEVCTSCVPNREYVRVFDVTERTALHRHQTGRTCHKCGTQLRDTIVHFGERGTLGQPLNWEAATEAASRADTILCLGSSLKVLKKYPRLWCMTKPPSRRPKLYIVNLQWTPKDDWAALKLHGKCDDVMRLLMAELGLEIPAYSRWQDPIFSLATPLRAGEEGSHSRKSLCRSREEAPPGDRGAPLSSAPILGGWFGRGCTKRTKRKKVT
Assay: Inhibition of SIRT7 (unknown origin)
Conditions: not given

| SMILES | Ki [nM] |
| --- | --- |
| Cc1[nH]c2ccccc2c1CCNCc1ccc(/C=C/C(=O)NO)cc1 [PANOBINOSTAT] | > 10000 |

System: not listed separately
Assay: Solubility in pH 7.4 phosphate buffer solution at 100 uM after 24 hrs by HPLC method
Format: physicochemical
Conditions: phosphate buffer, pH 7.4

| SMILES | solubility at 24 h, 100 µM [µM] |
| --- | --- |
| Cc1[nH]c2ccccc2c1CCNCc1ccc(/C=C/C(=O)NO)cc1 [PANOBINOSTAT] | 69 (≈ 24.1 µg/mL) |
| COc1ccc(Nc2c(NC(C)CCCCC(=O)NO)c(=O)c2=O)cc1 (racemic) | 85 (≈ 30.7 µg/mL) |
| CN(C)c1ccc(Nc2c(NCCCCCC(=O)NO)c(=O)c2=O)cc1 | 12 (≈ 4.32 µg/mL) |
| O=C(CCCCNc1c(Nc2ccccc2)c(=O)c1=O)NO | 87 (≈ 26.4 µg/mL) |
| C[C@H](CCCCC(=O)NO)Nc1c(Nc2ccc(OC(F)(F)F)cc2)c(=O)c1=O | 27 (≈ 11.2 µg/mL) |
| Cc1cc2ccc(Nc3c(NCCCCCC(=O)NO)c(=O)c3=O)cc2[nH]1 | 4.4 (≈ 1.63 µg/mL) |
| C[C@@H](CCCCC(=O)NO)Nc1c(Nc2ccc(N(C)C)cc2)c(=O)c1=O | 89 (≈ 33.3 µg/mL) |
| C[C@H](Nc1c(NCCCCCC(=O)NO)c(=O)c1=O)c1ccccc1 | 73 (≈ 25.2 µg/mL) |
| O=C(CCCCCNc1c(Nc2ccccc2)c(=O)c1=O)NO | 47 (≈ 14.9 µg/mL) |

System: HuT78
Assay: Pro-apoptotic activity in human HUT78 cells after 18 hrs by caspase-Glo 3/7 assay
Format: functional, cell-based
Conditions: HuT78, 18 h

| SMILES | EC50 [nM] |
| --- | --- |
| Cc1[nH]c2ccccc2c1CCNCc1ccc(/C=C/C(=O)NO)cc1 [PANOBINOSTAT] | 4.3 |
| COc1ccc(Nc2c(NC(C)CCCCC(=O)NO)c(=O)c2=O)cc1 (racemic) | 12 |
| CN(C)c1ccc(Nc2c(NCCCCCC(=O)NO)c(=O)c2=O)cc1 | 6.2 |
| O=C(CCCCNc1c(Nc2ccccc2)c(=O)c1=O)NO | 290 |
| C[C@H](CCCCC(=O)NO)Nc1c(Nc2ccc(OC(F)(F)F)cc2)c(=O)c1=O | 10 |
| Cc1cc2ccc(Nc3c(NCCCCCC(=O)NO)c(=O)c3=O)cc2[nH]1 | 28 |
| C[C@@H](CCCCC(=O)NO)Nc1c(Nc2ccc(N(C)C)cc2)c(=O)c1=O | 44 |
| C[C@H](Nc1c(NCCCCCC(=O)NO)c(=O)c1=O)c1ccccc1 | 220 |
| O=C(CCCCCNc1c(Nc2ccccc2)c(=O)c1=O)NO | 28 |

Biological target: T3, NAD-dependent protein deacetylase sirtuin-1 (Homo sapiens, UniProt Q96EB6)
T3 sequence (Q96EB6 whole entry): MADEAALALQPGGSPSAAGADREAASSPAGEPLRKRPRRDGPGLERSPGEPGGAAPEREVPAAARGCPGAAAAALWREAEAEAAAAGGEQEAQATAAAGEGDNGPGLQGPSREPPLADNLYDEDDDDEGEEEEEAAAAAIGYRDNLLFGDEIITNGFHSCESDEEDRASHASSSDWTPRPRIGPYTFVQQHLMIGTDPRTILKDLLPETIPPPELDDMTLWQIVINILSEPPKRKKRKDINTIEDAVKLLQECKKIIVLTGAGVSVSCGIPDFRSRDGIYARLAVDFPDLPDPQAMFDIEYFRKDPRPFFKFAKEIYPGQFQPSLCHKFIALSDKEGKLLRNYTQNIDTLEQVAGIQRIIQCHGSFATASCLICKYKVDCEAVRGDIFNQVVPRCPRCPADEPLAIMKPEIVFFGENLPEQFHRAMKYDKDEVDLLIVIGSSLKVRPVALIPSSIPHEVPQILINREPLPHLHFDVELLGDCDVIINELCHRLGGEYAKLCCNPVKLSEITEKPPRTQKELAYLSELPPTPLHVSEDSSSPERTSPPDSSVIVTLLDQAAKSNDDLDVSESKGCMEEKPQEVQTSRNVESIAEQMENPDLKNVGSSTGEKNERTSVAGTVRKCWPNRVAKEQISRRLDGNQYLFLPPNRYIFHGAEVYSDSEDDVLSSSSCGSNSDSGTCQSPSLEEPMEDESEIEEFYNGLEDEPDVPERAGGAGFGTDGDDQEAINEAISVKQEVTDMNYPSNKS
Assay: Inhibition of human recombinant SIRT1 using fluorogenic HDAC substrate after 20 mins by fluorimetrc method
Conditions: not given

| SMILES | Ki [nM] |
| --- | --- |
| Cc1[nH]c2ccccc2c1CCNCc1ccc(/C=C/C(=O)NO)cc1 [PANOBINOSTAT] | > 10000 |

Biological target: T4, NAD-dependent protein deacetylase sirtuin-2 (Homo sapiens, UniProt Q8IXJ6)
T4 sequence (Q8IXJ6 whole entry): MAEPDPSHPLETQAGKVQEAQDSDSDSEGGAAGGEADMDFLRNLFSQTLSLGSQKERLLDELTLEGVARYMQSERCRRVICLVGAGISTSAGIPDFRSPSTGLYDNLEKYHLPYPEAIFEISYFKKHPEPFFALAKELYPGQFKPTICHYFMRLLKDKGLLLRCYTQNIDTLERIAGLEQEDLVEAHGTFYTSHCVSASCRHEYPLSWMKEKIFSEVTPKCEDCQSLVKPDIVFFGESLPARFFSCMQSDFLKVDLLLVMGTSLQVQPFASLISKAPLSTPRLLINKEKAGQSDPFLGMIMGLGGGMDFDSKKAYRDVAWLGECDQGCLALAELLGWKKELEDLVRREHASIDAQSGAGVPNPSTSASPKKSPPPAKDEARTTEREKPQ
Assay: Inhibition of human recombinant SIRT2 using fluoro-lysine sirtuin 2 deacetylase substrate after 60 mins by fluorimetrc method
Conditions: not given

| SMILES | Ki [nM] |
| --- | --- |
| Cc1[nH]c2ccccc2c1CCNCc1ccc(/C=C/C(=O)NO)cc1 [PANOBINOSTAT] | > 10000 |

Biological target: Histone deacetylase 1 (Homo sapiens, UniProt Q13547)
Sequence (Q13547 whole entry): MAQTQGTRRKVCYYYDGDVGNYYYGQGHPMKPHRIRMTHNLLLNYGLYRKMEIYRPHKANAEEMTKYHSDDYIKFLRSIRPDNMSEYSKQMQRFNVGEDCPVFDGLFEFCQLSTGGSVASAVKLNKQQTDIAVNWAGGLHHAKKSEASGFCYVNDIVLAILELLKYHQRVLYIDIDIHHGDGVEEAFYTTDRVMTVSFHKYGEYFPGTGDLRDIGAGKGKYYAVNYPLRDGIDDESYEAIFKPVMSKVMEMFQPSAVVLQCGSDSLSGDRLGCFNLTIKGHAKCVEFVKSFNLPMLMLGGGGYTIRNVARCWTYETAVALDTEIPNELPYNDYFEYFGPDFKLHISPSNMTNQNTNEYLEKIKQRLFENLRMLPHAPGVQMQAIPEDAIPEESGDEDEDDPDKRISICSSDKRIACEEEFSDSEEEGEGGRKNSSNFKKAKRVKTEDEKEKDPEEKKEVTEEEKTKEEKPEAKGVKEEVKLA
Assay: Inhibition of human recombinant HDAC1 using Fluor de Lys as substrate after 2 hrs by fluorescence method
Conditions: not given

| SMILES | Ki [nM] |
| --- | --- |
| COc1ccc(Nc2c(NC(C)CCCCC(=O)NO)c(=O)c2=O)cc1 (racemic) | 0.27 |
| CN(C)c1ccc(Nc2c(NCCCCCC(=O)NO)c(=O)c2=O)cc1 | 0.91 |
| O=C(CCCCNc1c(Nc2ccccc2)c(=O)c1=O)NO | 12 |
| C[C@H](CCCCC(=O)NO)Nc1c(Nc2ccc(OC(F)(F)F)cc2)c(=O)c1=O | 0.58 |
| Cc1cc2ccc(Nc3c(NCCCCCC(=O)NO)c(=O)c3=O)cc2[nH]1 | 0.27 |
| C[C@@H](CCCCC(=O)NO)Nc1c(Nc2ccc(N(C)C)cc2)c(=O)c1=O | 4.3 |
| C[C@H](Nc1c(NCCCCCC(=O)NO)c(=O)c1=O)c1ccccc1 | 2.5 |
| O=C(CCCCCNc1c(Nc2ccccc2)c(=O)c1=O)NO | 0.29 |
